Experiments:
5xFAD mice = settings: cited from earlier work
BR6 cells = experiment: Protection from STS-induced cell death, MTT assay, BR6 cells; type: cell-based, human
SH-SY5Y cells = experiment: Protection from STS-induced cell death, MTT assay, TrkB-deficient SH-SY5Y cells; type: cell-based
TrkB [1] = experiment: TrkB activation in BR6 cells; type: cell-based, human; settings: data not shown
TrkB [2] = experiment: TrkB activation in SH-SY5Y cells; type: cell-based; settings: data not shown
GST-TrkB ECD = GST-TrkB ECD (Homo sapiens, UniProt Q16620); experiment: Biacore binding assay, GST-TrkB ECD
TrkB Ig1 = TrkB Ig1 (Homo sapiens, UniProt Q16620); experiment: Biacore binding assay, TrkB Ig1
TrkB Ig2 = TrkB Ig2 (Homo sapiens, UniProt Q16620); experiment: Biacore binding assay, TrkB Ig2
AD animal models = settings: cited from earlier work

GST-TrkB ECD, sequence (Q16620 32-428): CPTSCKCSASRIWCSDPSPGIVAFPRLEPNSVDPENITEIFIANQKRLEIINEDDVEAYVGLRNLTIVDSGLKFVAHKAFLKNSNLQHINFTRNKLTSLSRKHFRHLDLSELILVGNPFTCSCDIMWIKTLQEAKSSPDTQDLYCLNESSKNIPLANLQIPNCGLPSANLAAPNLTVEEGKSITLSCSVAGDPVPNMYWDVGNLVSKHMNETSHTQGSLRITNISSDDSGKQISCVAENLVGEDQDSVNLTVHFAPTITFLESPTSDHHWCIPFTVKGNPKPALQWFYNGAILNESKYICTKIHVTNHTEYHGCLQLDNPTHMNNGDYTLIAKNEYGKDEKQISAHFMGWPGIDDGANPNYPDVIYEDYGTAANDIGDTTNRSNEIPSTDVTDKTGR
TrkB Ig1, sequence (Q16620 182-250): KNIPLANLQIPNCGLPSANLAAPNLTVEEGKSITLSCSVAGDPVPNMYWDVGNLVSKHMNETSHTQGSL
TrkB Ig2, sequence (Q16620 251-340): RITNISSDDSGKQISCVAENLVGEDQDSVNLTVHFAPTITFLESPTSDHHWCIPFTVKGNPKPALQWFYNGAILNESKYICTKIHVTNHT

Kd (GST-TrkB ECD) | SMILES | Aβ deposition (5xFAD mice; chronic oral administration) | memory deficits (5xFAD mice; dose-dependent) | protective profile via MTT assay (BR6 cells) | protective effect via MTT assay (SH-SY5Y cells) | TrkB activation (TrkB [1]) | TrkB activation (TrkB [2]) | association with Ig1 domain (TrkB Ig1) | association with Ig2 domain (TrkB Ig2) | levels of Aβ40 and Aβ42 (AD animal models) | learning and memory deficits (AD animal models; different AD animal models)
– | CNC(=O)Oc1ccc2c(=O)cc(-c3ccccc3)oc2c1OC(=O)NC [R13] | inhibits Aβ deposition | improves memory deficits | – | – | – | – | – | – | – | –
184 nM | O=c1cc(-c2ccccc2)oc2c(O)c(O)ccc12 [7,8-DHF, 7,8-dihydroxyflavone] | – | – | comparable protective profiles | neither of them displayed a demonstrable effect | robustly provoked TrkB activation | barely visible | none of them associated with the Ig1 or Ig2 domains | none of them associated with the Ig1 or Ig2 domains | reduces the levels of Aβ40 and Aβ42 | rescues learning and memory deficits

From PMC8269693 (ACS Chemical Neuroscience, 2021)
